Experiment [1] concerns the target Sodium-dependent noradrenaline transporter (Homo sapiens, UniProt P23975). Put plainly: Late-stage radioligand binding dose response assay to identify inhibitors of NADPH oxidase 1 (NOX1): PDSP screen Ki. [Related pubchem assays (depositor defined):AID1792, AID1796, AID1823, AID2532, AID2538, AID2539, AID2541, AID2545, AID2556, AID2664, AID2752, AID2773, AID434992, AID434993, AID434997, AID435002, AID435009, AID435013, AID463255 ….

For experiment [2], the target named is 5-hydroxytryptamine receptor 2B (Homo sapiens, UniProt P41595). Described as above.
Experiment [3] concerns the target Sodium-dependent serotonin transporter (Homo sapiens, UniProt P31645). Described as above.
Experiment [4] addresses Alpha-2A adrenergic receptor (Homo sapiens, UniProt P08913). The experiment is described as above.
Experiment [5] addresses Oxytocin receptor (Homo sapiens, UniProt P30559). The experiment is described as above.
The target in experiment [6] is 5-hydroxytryptamine receptor 2C (Homo sapiens, UniProt P28335). Described as above.
A short description of experiment [7]: Trypanosoma cruzi growth suppression in host cells – NIH3T3 host cells, beta-gal luminescence, confirmation (AID 2044).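 Further: intracellular parasites grown in NIH/3T3 mouse fibroblasts as host cells; luminescent beta-galactosidase reporter signal from transgenic T. cruzi replicating inside host cells; inhibitors lower the luminescence signal.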 Type of experiment: functional, cell-based.
Experiment [8] addresses Alpha-2C adrenergic receptor (Homo sapiens, UniProt P18825). Put plainly: Late-stage radioligand binding dose response assay to identify inhibitors of NADPH oxidase 1 (NOX1): PDSP screen Ki. [Related pubchem assays (depositor defined):AID1792, AID1796, AID1823, AID2532, AID2538, AID2539, AID2541, AID2545, AID2556, AID2664, AID2752, AID2773, AID434992, AID434993, AID434997, AID435002, AID435009, AID435013, AID463255 ….

Experiment [9] is described as follows: NIH3T3 cell viability loss – ATP luminescence, mouse fibroblasts, counter-screen, dose response (AID 2010).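 Further: cells exposed to compound for about 90 hours before reading.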 The experiment is classed as functional, cell-based.
In experiment [10] the target is NADPH oxidase 1 (Homo sapiens, UniProt Q9Y5S8). In words: Luminescence-based cell-based dose response assay to identify inhibitors of NADPH oxidase 1 (NOX1). The experiment is classed as functional.
For experiment [11], the target named is Muscarinic acetylcholine receptor M5 (Homo sapiens, UniProt P08912). In words: Late-stage radioligand binding dose response assay to identify inhibitors of NADPH oxidase 1 (NOX1): PDSP screen Ki. [Related pubchem assays (depositor defined):AID1792, AID1796, AID1823, AID2532, AID2538, AID2539, AID2541, AID2545, AID2556, AID2664, AID2752, AID2773, AID434992, AID434993, AID434997, AID435002, AID435009, AID435013, AID463255 ….
Muscarinic acetylcholine receptor M5, sequence (P08912 whole entry): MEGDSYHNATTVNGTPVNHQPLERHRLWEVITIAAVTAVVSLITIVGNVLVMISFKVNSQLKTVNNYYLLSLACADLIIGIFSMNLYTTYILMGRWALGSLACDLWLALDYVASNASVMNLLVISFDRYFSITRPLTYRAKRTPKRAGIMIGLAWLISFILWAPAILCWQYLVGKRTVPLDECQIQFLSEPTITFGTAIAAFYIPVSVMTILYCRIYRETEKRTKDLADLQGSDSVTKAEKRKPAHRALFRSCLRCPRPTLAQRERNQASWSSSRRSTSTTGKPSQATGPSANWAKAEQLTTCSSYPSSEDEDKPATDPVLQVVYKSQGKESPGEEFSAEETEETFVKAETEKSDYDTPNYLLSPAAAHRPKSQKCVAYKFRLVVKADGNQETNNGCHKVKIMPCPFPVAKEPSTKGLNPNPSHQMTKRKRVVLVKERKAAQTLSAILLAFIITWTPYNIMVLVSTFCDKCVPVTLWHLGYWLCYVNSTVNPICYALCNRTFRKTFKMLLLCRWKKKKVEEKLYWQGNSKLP

Experiment [12] concerns the target D(3) dopamine receptor (Homo sapiens, UniProt P35462). The experiment is described as above.
The target of experiment [13] is Sigma non-opioid intracellular receptor 1 (Homo sapiens, UniProt Q99720). The experiment is described as above.
Experiment [14] deals with Glutamate receptor ionotropic, kainate 5 (Rattus norvegicus, UniProt Q63273). The description is as above.
Experiment [15] in a line: viability of uninfected HEp-2 cells – cell-based, HTS, cytotoxicity control for RSV inhibitor project, dose response (AID 2410). The experiment is classed as functional. Conditions: human respiratory syncytial virus.
Experiment [16] addresses 5-hydroxytryptamine receptor 4 (Homo sapiens, UniProt Q13639). Put plainly: Late-stage radioligand binding dose response assay to identify inhibitors of NADPH oxidase 1 (NOX1): PDSP screen Ki. [Related pubchem assays (depositor defined):AID1792, AID1796, AID1823, AID2532, AID2538, AID2539, AID2541, AID2545, AID2556, AID2664, AID2752, AID2773, AID434992, AID434993, AID434997, AID435002, AID435009, AID435013, AID463255 ….

For experiment [17], the target named is Alpha-2B adrenergic receptor (Homo sapiens, UniProt P18089). Described as above.
Experiment [18] concerns the target Muscarinic acetylcholine receptor M3 (Homo sapiens, UniProt P20309). The description is as above.
The target of experiment [19] is Muscarinic acetylcholine receptor M4 (Homo sapiens, UniProt P08173). The experiment is described as above.
The target in experiment [20] is Voltage-gated N-type calcium channel alpha-1B subunit/Amyloid beta A4 precursor protein-binding family A member 1 (Homo sapiens, UniProt Q00975+Q02410). Put plainly: disruptors of Mint-PDZ/N-type channel peptide interaction – biochemical, HTRF, SAR follow-up (AID 2489). The experiment is classed as functional.
Voltage-gated N-type calcium channel alpha-1B subunit/Amyloid beta A4 precursor protein-binding family A member 1, sequence (Q00975 whole entry): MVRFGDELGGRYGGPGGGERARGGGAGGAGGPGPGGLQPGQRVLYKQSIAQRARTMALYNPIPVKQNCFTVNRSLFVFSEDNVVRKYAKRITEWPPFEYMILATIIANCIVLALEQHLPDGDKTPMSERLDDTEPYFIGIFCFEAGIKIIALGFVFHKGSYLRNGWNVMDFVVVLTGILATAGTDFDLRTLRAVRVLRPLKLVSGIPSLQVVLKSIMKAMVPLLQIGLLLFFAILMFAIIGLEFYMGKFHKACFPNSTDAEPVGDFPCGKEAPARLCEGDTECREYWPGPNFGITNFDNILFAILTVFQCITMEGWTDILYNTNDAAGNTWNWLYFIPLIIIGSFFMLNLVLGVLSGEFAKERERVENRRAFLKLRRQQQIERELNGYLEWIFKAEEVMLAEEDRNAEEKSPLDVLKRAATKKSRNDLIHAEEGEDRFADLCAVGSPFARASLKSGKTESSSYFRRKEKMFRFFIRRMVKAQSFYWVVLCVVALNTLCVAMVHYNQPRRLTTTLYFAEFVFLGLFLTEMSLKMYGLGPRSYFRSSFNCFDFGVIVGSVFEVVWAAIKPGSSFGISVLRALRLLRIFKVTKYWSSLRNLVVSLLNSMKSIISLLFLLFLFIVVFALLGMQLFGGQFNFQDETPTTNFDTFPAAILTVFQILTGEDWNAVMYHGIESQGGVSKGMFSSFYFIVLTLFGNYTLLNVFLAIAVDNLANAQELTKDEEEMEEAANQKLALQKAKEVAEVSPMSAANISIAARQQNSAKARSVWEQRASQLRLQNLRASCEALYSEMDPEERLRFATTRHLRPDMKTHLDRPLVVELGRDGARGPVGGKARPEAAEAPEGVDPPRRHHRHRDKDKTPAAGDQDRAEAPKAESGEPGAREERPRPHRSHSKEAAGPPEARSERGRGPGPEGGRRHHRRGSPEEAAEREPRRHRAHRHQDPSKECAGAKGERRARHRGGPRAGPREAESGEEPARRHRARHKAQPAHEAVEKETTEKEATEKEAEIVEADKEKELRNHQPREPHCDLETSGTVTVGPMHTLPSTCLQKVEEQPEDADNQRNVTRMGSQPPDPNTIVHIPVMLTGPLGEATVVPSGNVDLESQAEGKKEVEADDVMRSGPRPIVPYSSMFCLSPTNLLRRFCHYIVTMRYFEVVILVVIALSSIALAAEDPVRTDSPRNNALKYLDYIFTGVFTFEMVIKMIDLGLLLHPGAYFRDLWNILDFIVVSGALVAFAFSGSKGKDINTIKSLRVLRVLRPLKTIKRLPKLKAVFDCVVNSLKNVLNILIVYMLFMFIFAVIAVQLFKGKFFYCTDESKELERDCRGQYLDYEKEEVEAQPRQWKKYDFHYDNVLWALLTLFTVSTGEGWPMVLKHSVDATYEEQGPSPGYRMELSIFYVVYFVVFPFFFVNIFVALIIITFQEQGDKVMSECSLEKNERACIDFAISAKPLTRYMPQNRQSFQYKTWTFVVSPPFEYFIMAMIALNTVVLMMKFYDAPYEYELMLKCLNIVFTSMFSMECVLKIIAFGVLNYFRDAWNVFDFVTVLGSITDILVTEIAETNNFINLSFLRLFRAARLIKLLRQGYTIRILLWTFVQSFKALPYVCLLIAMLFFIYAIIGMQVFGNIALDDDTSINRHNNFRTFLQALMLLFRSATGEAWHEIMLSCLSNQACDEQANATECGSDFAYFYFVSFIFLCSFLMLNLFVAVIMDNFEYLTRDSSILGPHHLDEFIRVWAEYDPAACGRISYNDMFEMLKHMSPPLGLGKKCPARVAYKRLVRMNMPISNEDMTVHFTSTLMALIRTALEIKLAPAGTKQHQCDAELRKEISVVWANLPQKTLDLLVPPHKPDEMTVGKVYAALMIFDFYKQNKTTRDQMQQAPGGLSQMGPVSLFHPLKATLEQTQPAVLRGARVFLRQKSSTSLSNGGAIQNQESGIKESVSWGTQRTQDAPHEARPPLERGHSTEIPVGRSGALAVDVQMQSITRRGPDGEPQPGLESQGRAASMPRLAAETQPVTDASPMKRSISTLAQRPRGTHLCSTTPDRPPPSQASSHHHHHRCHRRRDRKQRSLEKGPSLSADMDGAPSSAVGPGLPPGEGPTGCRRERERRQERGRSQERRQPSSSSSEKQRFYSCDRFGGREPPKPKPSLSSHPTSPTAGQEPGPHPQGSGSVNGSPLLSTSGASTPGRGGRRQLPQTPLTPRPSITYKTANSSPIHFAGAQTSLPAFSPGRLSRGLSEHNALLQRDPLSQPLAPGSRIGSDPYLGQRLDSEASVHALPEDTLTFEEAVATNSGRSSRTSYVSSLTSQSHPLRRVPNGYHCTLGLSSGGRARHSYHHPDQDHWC
Voltage-gated N-type calcium channel alpha-1B subunit/Amyloid beta A4 precursor protein-binding family A member 1, sequence (Q02410 whole entry): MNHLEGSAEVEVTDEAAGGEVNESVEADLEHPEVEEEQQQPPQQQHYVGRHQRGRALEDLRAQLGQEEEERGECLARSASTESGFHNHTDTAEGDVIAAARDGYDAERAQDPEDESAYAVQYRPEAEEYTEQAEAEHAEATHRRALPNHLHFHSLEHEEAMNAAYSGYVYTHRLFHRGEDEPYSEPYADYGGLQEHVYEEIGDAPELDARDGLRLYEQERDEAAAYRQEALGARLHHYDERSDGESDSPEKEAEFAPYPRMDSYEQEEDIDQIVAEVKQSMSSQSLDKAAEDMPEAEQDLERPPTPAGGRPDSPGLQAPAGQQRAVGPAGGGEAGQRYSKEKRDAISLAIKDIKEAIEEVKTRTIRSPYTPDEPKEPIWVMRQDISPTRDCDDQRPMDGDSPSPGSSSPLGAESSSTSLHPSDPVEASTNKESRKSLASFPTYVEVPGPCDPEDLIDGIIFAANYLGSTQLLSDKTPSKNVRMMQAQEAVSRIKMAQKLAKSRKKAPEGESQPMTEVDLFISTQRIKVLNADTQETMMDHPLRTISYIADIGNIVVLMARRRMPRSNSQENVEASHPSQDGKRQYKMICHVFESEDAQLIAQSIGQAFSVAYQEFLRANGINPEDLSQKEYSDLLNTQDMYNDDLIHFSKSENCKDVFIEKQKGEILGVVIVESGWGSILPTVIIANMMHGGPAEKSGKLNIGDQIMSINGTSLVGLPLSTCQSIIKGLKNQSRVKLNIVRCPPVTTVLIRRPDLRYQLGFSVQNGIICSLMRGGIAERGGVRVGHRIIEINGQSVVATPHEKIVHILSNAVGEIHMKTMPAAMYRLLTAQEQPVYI
The target of experiment [21] is T1, Tyrosine-protein phosphatase non-receptor type 7 (Homo sapiens, UniProt P35236).
T1 sequence (P35236 whole entry): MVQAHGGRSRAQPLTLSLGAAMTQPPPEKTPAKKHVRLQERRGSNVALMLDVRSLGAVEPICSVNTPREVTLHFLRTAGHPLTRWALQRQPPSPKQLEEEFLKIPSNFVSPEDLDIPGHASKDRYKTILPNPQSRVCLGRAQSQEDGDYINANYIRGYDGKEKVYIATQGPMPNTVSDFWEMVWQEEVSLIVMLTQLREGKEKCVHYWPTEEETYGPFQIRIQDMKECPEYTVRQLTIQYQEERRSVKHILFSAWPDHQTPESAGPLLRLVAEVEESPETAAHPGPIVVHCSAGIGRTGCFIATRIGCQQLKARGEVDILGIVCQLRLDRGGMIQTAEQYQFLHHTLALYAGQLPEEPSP
In words: redox-active compounds inhibiting HePTP phosphatase – biochemical, fluorescence, mechanism study (AID 2068). Type of experiment: functional.

Experiment [22] is described as follows: alpha-synuclein stem-loop luciferase translation blockers – H4 neuroglioma cells, luminescence, confirmation (AID 1988). The experiment is classed as functional, cell-based.
The nature of experiment [23]: DRD fibroblast viability loss – cell-based, non-viral oncogenic, luminescence, dose response (AID 1934). The experiment is classed as functional. Particulars: Homo sapiens.
Experiment [24] can be described thus: luciferase reporter signal suppression in cells – H4 neuroglioma cells, luminescence, dose response (AID 1990). Type of experiment: functional, cell-based.
For experiment [25], the system named is J774.A1. In words: Confirmation of image-based Screening Assay for Inhibitors of Phagocytosis. [Related pubchem assays (depositor defined):AID1029, AID1643]. Type of experiment: functional, cell-based. Conditions: Mus musculus.
The nature of experiment [26]: Luminescence Cell-Based Dose Response HTS to Identify Inhibitors of 5'UTR Stem-Loop Driven Prion Protein mRNA Translation in H4 Neuroglioblastoma Cells. [Related pubchem assays: 1827 (Project Summary), 1813 (Primary HTS)]. The experiment is classed as functional.
The test system of experiment [27] is BJ. Put plainly: BJ-TERT-LT-ST fibroblast viability loss – cell-based, RAS-independent, luminescence, dose response (AID 1935).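 Further: BJ fibroblasts immortalized with TERT plus LT and ST oncogenes.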 The experiment is classed as functional. Particulars: Homo sapiens.
In experiment [28] the test system is BJ. Put plainly: BJ-TERT fibroblast viability loss – cell-based, RAS-independent, luminescence, dose response (AID 1933). The experiment is classed as functional. Conditions: Homo sapiens.
Experiment [29] can be described thus: HEK-293T viability loss after treatment – luminescence, T-cell screen hits, cytotoxicity control for TCR NF-kB inhibitor project, dose response (AID 489026).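 Further: cells exposed to compound about 14 hours before the viability readout.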 The experiment is classed as functional, cell-based.
The subject of experiment [30] is BJ. In words: cells. The experiment is classed as functional, cell-based. Particulars: Homo sapiens.
Experiment [31] concerns the target NACHT, LRR and PYD domains-containing protein 1 (Homo sapiens, UniProt Q9C000). In words: NALP1 inhibitors in yeast, dose response, luminescent (AID 488860). The experiment is classed as functional.
The subject of experiment [32] is Saccharomyces cerevisiae. In words: S. cerevisiae Caspase-1/ASC signal blockers IC50, NALP1 inhibitor project selectivity test (AID 488863). Type of experiment: functional, organism-based.
Experiment [33] addresses DNA dC->dU-editing enzyme APOBEC-3G (Homo sapiens, UniProt Q9HC16). The experiment is classed as functional.
Experiment [34] has as its target DNA dC->dU-editing enzyme APOBEC-3A (Homo sapiens, UniProt P31941). In words: Dose Response confirmation of small molecule APOBEC3A DNA Deaminase Inhibitors via a fluorescence-based single-stranded DNA deaminase assay. [Related pubchem assays (depositor defined):AID493011, AID493024]. The experiment is classed as functional.
In experiment [35] the target is Bcl-2-like protein 10 (Homo sapiens, UniProt Q9HD36). In words: Bcl-B/TR3 peptide binding disruption – biochemical, fluorescence polarization, FITC-TR3 peptide, selectivity assay for Bfl-1 inhibitor project, primary screen (AID 748).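 Further: fluorescence polarization from a fluorescein-labelled TR3 peptide binding purified Bcl-B.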
In experiment [36] the target is Cystic fibrosis transmembrane conductance regulator/Golgi-associated PDZ and coiled-coil motif-containing protein (Homo sapiens, UniProt P13569+Q9HD26). Put plainly: potency against CAL PDZ-peptide interaction – biochemical, fluorescence polarization, Cerulean-tagged CAL PDZ, cherry-picks, dose response (AID 504773).

SMILES strings stand for the structures. Active and inactive are the calls of the source. Unless noted, the calls are words filed in the database; no cut-off is given here. Bounds are passed on as bounds.

Muscarinic acetylcholine receptor M3, sequence (P20309 whole entry): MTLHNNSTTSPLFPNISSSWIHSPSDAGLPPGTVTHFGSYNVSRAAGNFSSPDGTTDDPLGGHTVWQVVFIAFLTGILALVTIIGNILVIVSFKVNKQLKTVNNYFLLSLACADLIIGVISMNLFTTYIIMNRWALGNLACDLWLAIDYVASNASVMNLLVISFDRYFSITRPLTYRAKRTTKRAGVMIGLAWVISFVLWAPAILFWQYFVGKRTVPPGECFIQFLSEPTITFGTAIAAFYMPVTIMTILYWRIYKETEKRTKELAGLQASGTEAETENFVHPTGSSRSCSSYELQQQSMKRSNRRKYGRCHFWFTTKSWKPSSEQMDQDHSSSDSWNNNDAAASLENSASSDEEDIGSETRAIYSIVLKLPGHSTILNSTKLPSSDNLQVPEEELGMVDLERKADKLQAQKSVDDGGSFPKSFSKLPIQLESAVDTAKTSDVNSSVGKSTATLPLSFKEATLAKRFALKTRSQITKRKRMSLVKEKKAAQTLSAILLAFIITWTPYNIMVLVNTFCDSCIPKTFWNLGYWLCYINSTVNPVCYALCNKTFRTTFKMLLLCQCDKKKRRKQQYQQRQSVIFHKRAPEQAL
Oxytocin receptor, sequence (P30559 whole entry): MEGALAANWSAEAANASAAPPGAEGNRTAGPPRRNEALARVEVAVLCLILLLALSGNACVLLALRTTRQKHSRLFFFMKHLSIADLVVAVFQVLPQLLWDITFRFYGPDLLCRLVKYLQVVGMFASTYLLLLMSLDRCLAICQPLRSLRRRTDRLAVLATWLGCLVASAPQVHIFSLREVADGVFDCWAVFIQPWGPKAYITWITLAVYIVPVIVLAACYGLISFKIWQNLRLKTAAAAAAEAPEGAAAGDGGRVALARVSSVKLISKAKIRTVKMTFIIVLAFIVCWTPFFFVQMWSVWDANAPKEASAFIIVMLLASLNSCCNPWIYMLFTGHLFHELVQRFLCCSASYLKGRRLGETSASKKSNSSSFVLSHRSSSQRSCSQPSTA
D(3) dopamine receptor, sequence (P35462 whole entry): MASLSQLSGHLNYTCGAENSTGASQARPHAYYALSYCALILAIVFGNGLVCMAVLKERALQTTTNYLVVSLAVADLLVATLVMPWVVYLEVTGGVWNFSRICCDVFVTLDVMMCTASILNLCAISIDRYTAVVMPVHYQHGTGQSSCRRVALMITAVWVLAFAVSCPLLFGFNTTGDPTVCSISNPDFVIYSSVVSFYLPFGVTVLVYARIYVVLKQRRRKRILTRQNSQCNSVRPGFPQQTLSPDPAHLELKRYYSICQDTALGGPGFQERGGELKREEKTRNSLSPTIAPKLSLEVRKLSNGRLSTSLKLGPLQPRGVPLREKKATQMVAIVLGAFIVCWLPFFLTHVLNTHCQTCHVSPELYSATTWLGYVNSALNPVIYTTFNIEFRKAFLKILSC

As for `CN1c2ccccc2Sc2cc(N)ccc21`, the Ki was 3.94 µM (active) in [1]; 0.556 µM (active) in [2]; 10 µM (active) in [3]; 6.92 µM (active) in [4]; > 10 µM (inactive) in experiment [5]; 2.96 µM (active) in [6]. Besides, the Ki in experiment [8] is 5.76 µM (active); in experiment [11], > 10 µM (inactive); in experiment [12] it was 9.06 µM (active); in experiment [13], > 10 µM (inactive); in experiment [14] it was > 10 µM (inactive); in experiment [16] it was > 10 µM (inactive). Also, the Ki was 2.72 µM (active) in experiment [17], 10 µM (inactive) in experiment [18] and > 10 µM (inactive) in [19]. For the same compound, the EC50 in experiment [7] was 1.27 µM (active); in experiment [9], > 60 µM (not active). For the same compound, the IC50 in [10] was 0.044 µM (active). Also, the CC50 in [15] is 27.1 µM (active).

As to `O=C(Nc1ccc2nc(-c3ccco3)c(-c3ccco3)nc2c1)N1CCOCC1`, the IC50 in [20] is 22.3 µM (active); in experiment [21], 0.693 µM (active).

Take `CCOC(=O)Nc1nc(-c2ccccc2)c(C(=O)c2ccccc2)s1`: the EC50 is 0.198 µM (active) in experiment [22]; 12.3 µM (inconclusive) in [23]; 1.41 µM (active) in [24]; 1.38 µM (active) in experiment [26]; 4.12 µM (inconclusive) in experiment [27]; 7.17 µM (inconclusive) in experiment [28]. The concentration giving a half-maximal response (EC50) in [30] is 17.1 µM (inconclusive). Moreover, the IC50 was 0.215 µM (active) in experiment [25] and 68.3 µM (inactive) in [29].

Consider `CCCCC(=O)Nc1ccc(C(=O)NNC(=S)NC(=O)c2ccco2)cc1`, for which the values for the IC50 in experiment [31] and in experiment [32] were 25.7 µM (active) and 18.8 µM (active), respectively.

In the case of `CCC1=[N+](C)CCn2c(C)ccc21`, the IC50 in [33] is 1.32 µM (active); in experiment [34], 1.51 µM (active); in experiment [35], > 100 µM (inactive).

Turning to `O=C1OC(c2ccccc2)(c2ccccc2)c2ccccc21`, the concentration at half-maximal activity (AC50) in experiment [36] is 17.3 µM (active).

The values are drawn from ChEMBL document CHEMBL1201862, “PubChem BioAssay data set” (2004).
